# Results taken from patent publication US20240383911A1, “AZAINDAZOLE MACROCYCLE COMPOUNDS AND USES THEREOF” (BROADENBIO CO., LTD, priority 2021, published 2024).
# How the values were obtained:
# HPK1 = HPK1 (Homo sapiens, UniProt Q92918); assay: HPK1 kinase activity inhibition test (ADP-Glo, luminescence); type: biochemical; details: 2 μM ATP, 5 nM HPK1, read-out: IC50, inhibitory effects on HPK1 kinase activity
# How it was run: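 Autophosphorylation assay without added substrate: HPK1 preincubated with compound 10 min at 25 °C, then ATP added for 60 min at 25 °C; final DMSO 0.5%. ADP measured by ADP-Glo luminescence; IC50 from four-parameter nonlinear fit.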
# Human Jurkat-E6-1 cells = assay: Detection of IL-2 production by Jurkat cells using ELISA; type: cell-based; details: anti-CD3/anti-CD28 stimulation 24 hours, tested compound 1.0 μM, read-out: Percentage of the amount of IL-2 secreted by compound treated vs DMSO-treated cells
# How it was run: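 Jurkat E6-1 cells were pre-incubated with compound for 30 min at 37 °C, then stimulated 24 h on plate-bound anti-CD3 plus soluble anti-CD28. Secreted IL-2 in supernatant was measured by sandwich ELISA (450 nm) against a standard curve and expressed as % of DMSO-treated cells.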
# FLT3 = target: T1, FLT3 (Homo sapiens, UniProt P36888); assay: FLT3 kinase activity inhibition test (HTRF); type: biochemical; details: read-out: IC50, inhibitory effects on FLT3 kinase activity
# T1 sequence (P36888 27-993): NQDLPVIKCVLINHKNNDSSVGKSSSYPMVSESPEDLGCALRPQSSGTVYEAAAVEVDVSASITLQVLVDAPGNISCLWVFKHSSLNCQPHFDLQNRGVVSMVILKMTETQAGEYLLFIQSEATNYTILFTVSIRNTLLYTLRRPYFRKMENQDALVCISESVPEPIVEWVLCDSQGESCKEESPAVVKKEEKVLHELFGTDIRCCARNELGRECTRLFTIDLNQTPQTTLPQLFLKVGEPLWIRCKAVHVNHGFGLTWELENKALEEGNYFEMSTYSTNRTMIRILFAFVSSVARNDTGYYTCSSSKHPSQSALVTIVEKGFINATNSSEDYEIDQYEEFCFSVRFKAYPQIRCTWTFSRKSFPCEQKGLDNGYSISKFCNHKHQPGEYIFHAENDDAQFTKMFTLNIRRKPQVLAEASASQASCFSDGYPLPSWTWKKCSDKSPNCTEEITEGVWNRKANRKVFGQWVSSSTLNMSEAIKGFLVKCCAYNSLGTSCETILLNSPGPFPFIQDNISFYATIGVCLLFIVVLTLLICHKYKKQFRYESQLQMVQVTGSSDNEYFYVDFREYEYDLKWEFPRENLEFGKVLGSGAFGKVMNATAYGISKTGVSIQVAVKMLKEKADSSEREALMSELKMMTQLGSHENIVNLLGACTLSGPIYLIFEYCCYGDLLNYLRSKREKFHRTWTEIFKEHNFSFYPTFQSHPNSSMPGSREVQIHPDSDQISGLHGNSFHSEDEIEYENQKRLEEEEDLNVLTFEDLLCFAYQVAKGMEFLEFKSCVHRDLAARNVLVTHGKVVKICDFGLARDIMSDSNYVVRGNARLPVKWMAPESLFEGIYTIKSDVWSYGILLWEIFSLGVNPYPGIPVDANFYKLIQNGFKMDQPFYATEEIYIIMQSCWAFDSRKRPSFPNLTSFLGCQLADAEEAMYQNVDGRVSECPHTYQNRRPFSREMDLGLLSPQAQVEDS
# Procedure: Tested compounds: compounds prepared in the Examples of this invention.
# Prepare compound stock solution: dissolve the test compound in 100% DMSO to make a 10 mM stock solution. Dilute the stock solution of the test compound by 5 times with 100% DMSO, make a 4-fold equal dilution in a 96-well dilution plate, add 1 μL of the compound to 39 μL of kinase reaction buffer (1×kinase buffer, 5 mM MgCl2, 1 mM DTT), and shake on a microplate shaker for 20 minutes. 4×Positive control (4 μL of positive compound solution of the starting concentration, add 196 μL of kinase buffer) and 4×negative control (4 μL of 100% DMSO, add 196 μL of kinase buffer).
# (1) Use 1×kinase reaction buffer to prepare 2.5×FLT3 kinase solution (160 μM), transfer 2 μL of the kinase solution to the 384 reaction plate, and add 1 μL of the test compound solution of gradient concentration to the 384 reaction plate (Greiner, Cat #784075), centrifuge for 1 minute (1000 rpm), and incubate at 25° C. for 10 minutes.
# (2) Use 1×kinase reaction buffer to prepare 2.5×TK-substrate-biotin (2.5 μM) and 2.5×ATP (2.5 μM), mix well, and add 2 μL of the TK-substrate-biotin/ATP solution to the 384 reaction plate, centrifuge for 30 seconds (1000 rpm), and incubate at 25° C. for 40 minutes.
# (3) Use HTRF detection buffer to prepare 2×Sa-XL 665 (125 nM) and 1×TK-antibody-Cryptate. Add 5 μL of a mixture of Sa-XL 665 and TK-antibody-Cryptate solutions to each well, centrifuge for 30 seconds (1000 rpm), and react at room temperature for 1 hour.
# (4) The fluorescence signal is read using a Biotek multi-function plate reader, and the IC50 (half inhibitory concentration) of the compound is obtained using a four-coefficient nonlinear fitting formula.
# Sequence of HPK1 (Q92918 whole entry): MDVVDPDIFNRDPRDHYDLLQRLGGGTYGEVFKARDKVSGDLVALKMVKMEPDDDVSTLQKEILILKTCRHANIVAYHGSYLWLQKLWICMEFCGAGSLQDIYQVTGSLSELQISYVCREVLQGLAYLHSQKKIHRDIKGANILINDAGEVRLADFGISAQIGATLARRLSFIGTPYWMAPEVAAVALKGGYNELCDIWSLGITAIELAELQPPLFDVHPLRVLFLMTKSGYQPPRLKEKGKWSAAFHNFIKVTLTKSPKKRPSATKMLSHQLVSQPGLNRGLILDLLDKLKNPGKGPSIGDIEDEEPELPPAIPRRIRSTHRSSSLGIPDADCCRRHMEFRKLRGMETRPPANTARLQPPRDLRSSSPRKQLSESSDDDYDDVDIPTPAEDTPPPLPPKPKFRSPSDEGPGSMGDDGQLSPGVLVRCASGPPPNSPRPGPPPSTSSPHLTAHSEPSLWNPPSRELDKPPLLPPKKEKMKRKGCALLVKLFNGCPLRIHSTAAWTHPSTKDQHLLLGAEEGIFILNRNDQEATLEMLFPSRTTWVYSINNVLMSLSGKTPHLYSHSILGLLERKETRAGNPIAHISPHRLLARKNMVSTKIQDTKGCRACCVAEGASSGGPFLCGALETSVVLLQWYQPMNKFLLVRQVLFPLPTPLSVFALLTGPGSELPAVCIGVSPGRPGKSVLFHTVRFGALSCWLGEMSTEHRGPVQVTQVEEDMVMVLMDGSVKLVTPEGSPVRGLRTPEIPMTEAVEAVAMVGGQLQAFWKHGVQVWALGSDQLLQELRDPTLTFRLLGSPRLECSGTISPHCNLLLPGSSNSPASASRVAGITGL
IC50 (HPK1),IC50 (FLT3),Compound,activity at 1 µM (Human Jurkat-E6-1 cells)
≤ 5 nM,5 to 50 nM,"CN1CCN(c2ncc3cc2OCCCOc2cccc(F)c2-c2cc4c-3n[nH]c4cn2)CC1 [Compound 3, 16-fluoro-5-(4-methylpiperazin-1-yl)-7,11-dioxa-4,19,22,23-tetraazapentacyclo[16.5.2.1^2,6.0^12,17.0^21,24]hexacosa-1(23),2(26),3,5,12,14,16,18,20,24-decaene]",823%
≤ 5 nM,≤ 5 nM,"CN1CCN(c2ccc3cc2OCCCOc2cccc(F)c2-c2cc4c-3n[nH]c4cn2)CC1 [Compound 6, 16-fluoro-5-(4-methylpiperazin-1-yl)-7,11-dioxa-19,22,23-triazapentacyclo[16.5.2.1^2,6.0^12,17.0^21,24]hexacosa-1(23),2(26),3,5,12,14,16,18,20,24-decaene]",542%
≤ 5 nM,≤ 5 nM,"CN1CCN(c2ccc3cc2OCCOCc2cccc(F)c2-c2cc4c-3n[nH]c4cn2)CC1 [Compound 9, 16-fluoro-5-(4-methylpiperazin-1-yl)-7,10-dioxa-19,22,23-triazapentacyclo[16.5.2.1^2,6.0^12,17.0^21,24]hexacosa-1(23),2(26),3,5,12,14,16,18,20,24-decaene]",568%
